Reference: ChEMBL document CHEMBL5113529, “Design, Synthesis, and Biological Evaluation of Dual-Target COX-2/CYP51 Inhibitors for the Treatment of Fungal Infectious Diseases” (J Med Chem, 2022)
In brackets after ≈: the same amount, converted by molar mass. Activity calls are given as the source filed them. The calls are words filed in the database; no cut-off is given here.

Experiments:
[1] = test system: Candida albicans; test: Antifungal activity against Candida albicans ATCC SC5314 assessed as fungal growth inhibition measured after 72 hrs in presence of fluconazole by double dilution method; details: ATCC SC5314, 72 h
[2] = test system: Pichia kudriavzevii; test: microbe, parasite or virus in culture; details: ATCC 6258, 72 h
Description: Antifungal activity against Candida krusei ATCC 6258 assessed as fungal growth inhibition measured after 72 hrs in presence of fluconazole by double dilution method

[3] = test system: Candida albicans; test: microbe, parasite or virus in culture; details: Candida albicans, 904, 72 h
Description: Antifungal activity against fluconazole- resistant Candida albicans 904 assessed as fungal growth inhibition measured after 72 hrs in presence of fluconazole by double dilution method

[4] = test system: Candida albicans; test: microbe, parasite or virus in culture; details: Candida albicans, 901, 72 h
Description: Antifungal activity against fluconazole- resistant Candida albicans 901 assessed as fungal growth inhibition measured after 72 hrs in presence of fluconazole by double dilution method

[5] = test system: Candida albicans; test: microbe, parasite or virus in culture; details: Candida albicans, 632, 72 h
Description: Antifungal activity against fluconazole- resistant Candida albicans 632 assessed as fungal growth inhibition measured after 72 hrs in presence of fluconazole by double dilution method

[6] = test system: Candida albicans; test: Antifungal activity against fluconazole- resistant Candida albicans 17# assessed as fungal growth inhibition measured after 72 hrs in presence of fluconazole by double dilution method
[7] = test system: Candida albicans; test: Antifungal activity against fluconazole- resistant Candida albicans CaR assessed as fungal growth inhibition measured after 72 hrs in presence of fluconazole by double dilution method
[8] = test system: Candida tropicalis; test: microbe, parasite or virus in culture; details: ATCC 1369, 72 h
Description: Antifungal activity against Candida tropicalis ATCC 1369 assessed as fungal growth inhibition measured after 72 hrs in presence of fluconazole by double dilution method

[9] = target: T1, Prostaglandin G/H synthase 2 (Homo sapiens, UniProt P35354); test: Inhibition of COX-2 (unknown origin) using arachidonic acid as substrate preincubated for 10 mins followed by substrate addition and measured after 2 mins by immunoassay
T1 sequence (P35354 whole entry): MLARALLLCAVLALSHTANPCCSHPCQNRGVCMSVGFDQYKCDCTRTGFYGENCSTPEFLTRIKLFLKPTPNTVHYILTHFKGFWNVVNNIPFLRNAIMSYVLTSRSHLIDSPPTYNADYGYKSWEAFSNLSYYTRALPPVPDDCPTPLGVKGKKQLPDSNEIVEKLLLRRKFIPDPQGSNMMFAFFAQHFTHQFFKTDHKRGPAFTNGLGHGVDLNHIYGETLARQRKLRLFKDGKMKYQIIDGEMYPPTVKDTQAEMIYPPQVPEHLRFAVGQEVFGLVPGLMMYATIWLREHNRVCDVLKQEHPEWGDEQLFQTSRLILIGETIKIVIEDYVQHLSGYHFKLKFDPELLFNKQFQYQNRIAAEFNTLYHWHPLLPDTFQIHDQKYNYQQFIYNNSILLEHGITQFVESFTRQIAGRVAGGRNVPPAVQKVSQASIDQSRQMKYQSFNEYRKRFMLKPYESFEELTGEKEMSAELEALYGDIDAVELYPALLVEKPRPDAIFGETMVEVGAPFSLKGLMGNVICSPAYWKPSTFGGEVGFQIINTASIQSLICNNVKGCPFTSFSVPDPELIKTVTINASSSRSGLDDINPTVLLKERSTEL

[10] = test system: Aspergillus fumigatus; test: Antifungal activity against Aspergillus fumigatus KM8001 assessed as fungal growth inhibition measured after 72 hrs in presence of fluconazole by double dilution method; details: KM8001, 72 h
[11] = test system: Cryptococcus neoformans; test: microbe, parasite or virus in culture; details: ZKCC 2209, 72 h
Description: Antifungal activity against Cryptococcus neoformans ZKCC 2209 assessed as fungal growth inhibition measured after 72 hrs in presence of fluconazole by double dilution method

[12] = test system: Candida albicans; test: Antifungal activity against fluconazole -resistant Candida albicans 904 assessed as fungal growth inhibition measured after 72 hrs by double dilution method; assay type: functional
[13] = test system: Candida albicans; test: Antifungal activity against Candida albicans ATCC SC5314 assessed as decrease in fungal cell density measured at 48 hrs by fluorescence microscopy (reference value: 258%); assay type: functional; parameters: scale not given: the % may be the effect or the level left
[14] = test system: Candida albicans; test: Antifungal activity against fluconazole -resistant Candida albicans CaR assessed as fungal growth inhibition measured after 72 hrs by double dilution method; assay type: functional
[15] = test system: Candida albicans; test: Antifungal activity against fluconazole- resistant Candida albicans 17# assessed as fungal growth inhibition measured after 72 hrs by double dilution method; assay type: functional
[16] = test system: Pichia kudriavzevii; test: Antifungal activity against Candida krusei ATCC 6258 assessed as fungal growth inhibition measured after 72 hrs by double dilution method; assay type: functional
[17] = test system: Candida tropicalis; test: Antifungal activity against Candida tropicalis ATCC 1369 assessed as fungal growth inhibition measured after 72 hrs by double dilution method; assay type: functional
[18] = target: Lanosterol 14-alpha demethylase (Candida albicans (strain SC5314 / ATCC MYA-2876) (Yeast), UniProt P10613); test: Inhibition of CYP51 in Candida albicans SC5314 using Eburicol as substrate preincubated for 20 mins followed by substrate addition and measured after 4 mins by HPLC analysis; assay type: single protein
Chain of Lanosterol 14-alpha demethylase (P10613 whole entry): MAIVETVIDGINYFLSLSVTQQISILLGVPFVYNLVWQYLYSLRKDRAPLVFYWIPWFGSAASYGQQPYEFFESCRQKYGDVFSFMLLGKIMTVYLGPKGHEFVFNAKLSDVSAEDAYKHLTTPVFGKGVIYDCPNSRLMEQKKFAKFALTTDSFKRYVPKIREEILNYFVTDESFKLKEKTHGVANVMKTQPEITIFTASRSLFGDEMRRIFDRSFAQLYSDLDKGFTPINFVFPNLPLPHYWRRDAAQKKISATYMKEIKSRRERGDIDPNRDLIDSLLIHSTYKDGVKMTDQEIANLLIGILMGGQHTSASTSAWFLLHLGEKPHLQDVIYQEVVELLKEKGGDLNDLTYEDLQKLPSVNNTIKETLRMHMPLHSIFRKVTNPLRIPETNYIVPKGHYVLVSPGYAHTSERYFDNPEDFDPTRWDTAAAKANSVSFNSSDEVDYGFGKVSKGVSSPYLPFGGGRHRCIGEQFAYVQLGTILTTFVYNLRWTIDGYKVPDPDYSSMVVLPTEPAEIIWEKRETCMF

[19] = target: Prostaglandin G/H synthase 1 (Homo sapiens, UniProt P23219); test: Inhibition of COX-1 (unknown origin) using arachidonic acid as substrate preincubated for 10 mins followed by substrate addition and measured after 2 mins by immunoassay
Chain of Prostaglandin G/H synthase 1 (P23219 whole entry): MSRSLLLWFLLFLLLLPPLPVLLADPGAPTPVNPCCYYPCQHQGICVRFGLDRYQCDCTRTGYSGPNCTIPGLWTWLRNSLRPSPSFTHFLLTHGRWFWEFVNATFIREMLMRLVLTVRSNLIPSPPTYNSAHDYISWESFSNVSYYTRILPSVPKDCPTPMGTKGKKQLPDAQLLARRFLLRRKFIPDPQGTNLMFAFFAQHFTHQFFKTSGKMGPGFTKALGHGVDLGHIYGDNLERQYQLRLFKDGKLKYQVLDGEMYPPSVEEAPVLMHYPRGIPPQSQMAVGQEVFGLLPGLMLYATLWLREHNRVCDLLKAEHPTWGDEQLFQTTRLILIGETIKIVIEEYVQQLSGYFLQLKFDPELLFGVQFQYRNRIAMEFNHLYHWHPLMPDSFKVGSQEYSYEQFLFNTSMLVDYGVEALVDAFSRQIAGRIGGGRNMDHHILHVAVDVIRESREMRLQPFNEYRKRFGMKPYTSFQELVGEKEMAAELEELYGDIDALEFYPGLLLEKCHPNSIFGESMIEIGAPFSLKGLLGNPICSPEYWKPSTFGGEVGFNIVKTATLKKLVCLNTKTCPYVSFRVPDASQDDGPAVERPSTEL

[20] = test system: Candida albicans; test: Antifungal activity against Candida albicans ATCC SC5314 assessed as fungal growth inhibition measured after 72 hrs by double dilution method; assay type: functional
[21] = test system: Candida albicans; test: Antifungal activity against fluconazole -resistant Candida albicans 632 assessed as fungal growth inhibition measured after 72 hrs by double dilution method; assay type: functional
[22] = test system: Cryptococcus neoformans; test: Antifungal activity against Cryptococcus neoformans ZKCC 2209 assessed as fungal growth inhibition measured after 72 hrs by double dilution method; assay type: functional
[23] = test system: Aspergillus fumigatus; test: Antifungal activity against Aspergillus fumigatus KM8001 assessed as fungal growth inhibition measured after 72 hrs by double dilution method; assay type: functional
[24] = test system: Candida albicans; test: Antifungal activity against fluconazole -resistant Candida albicans 901 assessed as fungal growth inhibition measured after 72 hrs by double dilution method; assay type: functional
[25] = test system: Candida albicans; test: Antifungal activity against Candida albicans ATCC SC5314 assessed as induction of ROS production by measuring fluorescence intensity incubated for 12 hrs by KGT010-1 staining based fluorescence microscopy; assay type: functional, organism-based
[26] = test system: Candida albicans; test: Antifungal activity against Candida albicans ATCC SC5314 assessed as decrease in fungal cell density measured immediately by fluorescence microscopy (reference value: 126%); assay type: functional; parameters: scale not given: the % may be the effect or the level left
[27] = test system: Candida albicans; test: Induction of mitochondrial membrane potential loss in Candida albicans ATCC SC5314 assessed as polarized cells at 1 umol/ml incubated for 24 hrs by JC-1 staining based flow cytometry assay (reference value: 0.69%); assay type: functional; details: dose 1 µmol/L, at 1 µM
[28] = test system: Candida albicans; test: Induction of apoptosis in Candida albicans ATCC SC5314 assessed as necrotic cells incuabted for 24 hrs by V-FITC/PI staining based flow cytometry analysis (reference value: 1.77%); assay type: functional
[29] = test system: Candida albicans; test: Induction of mitochondrial membrane potential loss in Candida albicans ATCC SC5314 assessed as normal cells at 1 umol/ml incubated for 24 hrs by JC-1 staining based flow cytometry assay (reference value: 95.26%); assay type: functional; details: dose 1 µmol/L, at 1 µM
[30] = test system: Candida albicans; test: Induction of apoptosis in Candida albicans ATCC SC5314 assessed as normal cells incuabted for 24 hrs by V-FITC/PI staining based flow cytometry analysis (reference value: 96.78%); assay type: functional
[31] = test system: Candida albicans; test: Induction of mitochondrial membrane potential loss in Candida albicans ATCC SC5314 assessed as depolarized cells at 1 umol/ml incubated for 24 hrs by JC-1 staining based flow cytometry assay (reference value: 0.76 to 3.29%); assay type: functional; details: dose 1 µmol/L, at 1 µM
[32] = test system: Candida albicans; test: Induction of apoptosis in Candida albicans ATCC SC5314 assessed as mid apoptotic cells incuabted for 24 hrs by V-FITC/PI staining based flow cytometry analysis (reference value: 1.09%); assay type: functional
[33] = test system: Candida albicans; test: Induction of apoptosis in Candida albicans ATCC SC5314 assessed as late apoptotic cells incuabted for 24 hrs by V-FITC/PI staining based flow cytometry analysis (reference value: 0.36%); assay type: functional

Row | SMILES | MIC50 [16] [mg/L] | MIC50 [17] [mg/L] | MIC50 [20] [mg/L] | MIC50 [22] [mg/L] | MIC50 [23] [mg/L] | further results
1 | COc1ccc2cc([C@H](C)C(=O)O)ccc2c1 [NAPROXEN] | – | – | – | – | – | MIC50 [1]: 0.25 mg/L; MIC50 [2]: 1 mg/L (≈ 4.34 µM); MIC50 [3]: 2 mg/L (≈ 8.69 µM); MIC50 [4]: 4 mg/L (≈ 17.4 µM); MIC50 [5]: 4 mg/L (≈ 17.4 µM); MIC50 [6]: 4 mg/L; MIC50 [7]: 2 mg/L; MIC50 [8]: 0.5 mg/L (≈ 2.17 µM); IC50 [9]: 2.39 µM; MIC50 [10]: 4 mg/L; MIC50 [11]: 0.25 mg/L (≈ 1.09 µM)
2 | CC(C)OC(=O)[C@@H](Cn1cncn1)NC(=O)[C@@H](C)c1cccc(C(=O)c2ccccc2)c1 | 0.5 (≈ 1.15 µM) | 0.5 (≈ 1.15 µM) | 0.25 (≈ 0.575 µM) | 0.25 (≈ 0.575 µM) | 4 (≈ 9.21 µM) | MIC50 [12]: > 8 mg/L; Activity [13]: 84%; MIC50 [14]: 4 mg/L (≈ 9.21 µM); MIC50 [15]: 4 mg/L (≈ 9.21 µM); IC50 [18]: 0.2 µM; IC50 [19]: > 50 µM; MIC50 [21]: > 8 mg/L; IC50 [9]: 3.41 µM; MIC50 [24]: 4 mg/L (≈ 9.21 µM); Activity [25]: Active; Activity [26]: 141%
3 | CC(C)OC(=O)[C@@H](Cn1cncn1)NC(=O)[C@@H](C)c1ccc(-c2ccccc2)c(F)c1 | 2 (≈ 4.71 µM) | 0.5 (≈ 1.18 µM) | 1 (≈ 2.36 µM) | 1 (≈ 2.36 µM) | > 8 | –
4 | CC(=O)N1CCN(c2ccc(OCC3COC(Cn4ccnc4)(c4ccc(Cl)cc4Cl)O3)cc2)CC1 (centres undefined) [KETOCONAZOLE] | 0.5 (≈ 0.941 µM) | 0.5 (≈ 0.941 µM) | 0.5 (≈ 0.941 µM) | 1 (≈ 1.88 µM) | > 8 | MIC50 [12]: > 8 mg/L; MIC50 [14]: 4 mg/L (≈ 7.53 µM); MIC50 [15]: 4 mg/L (≈ 7.53 µM); MIC50 [21]: > 8 mg/L; MIC50 [24]: 4 mg/L (≈ 7.53 µM)
5 | COc1ccc2cc([C@H](C)C(=O)N[C@H](Cn3ccnc3)C(=O)NC(C)C)ccc2c1 | 0.25 (≈ 0.612 µM) | 1 (≈ 2.45 µM) | 0.25 (≈ 0.612 µM) | 0.5 (≈ 1.22 µM) | 4 (≈ 9.79 µM) | –

Continued, in another order:

Row | MIC50 [16] [mg/L] | MIC50 [17] [mg/L] | MIC50 [20] [mg/L] | MIC50 [22] [mg/L] | MIC50 [23] [mg/L] | SMILES | further results
6 | 1 (≈ 2.21 µM) | 0.5 (≈ 1.1 µM) | 5 (≈ 11 µM) | 0.5 (≈ 1.1 µM) | 4 (≈ 8.84 µM) | C[C@H](C(=O)NC(Cn1cncn1)C(=O)c1ccccc1)c1cccc(C(=O)c2ccccc2)c1 (some centres undefined) | –
7 | 3 (≈ 7.08 µM) | 1 (≈ 2.36 µM) | 0.5 (≈ 1.18 µM) | 0.25 (≈ 0.59 µM) | > 8 | CC(C)OC(=O)[C@@H](Cn1ccnc1)NC(=O)[C@@H](C)c1ccc(-c2ccccc2)c(F)c1 | –
8 | 0.5 (≈ 1.23 µM) | 1 (≈ 2.46 µM) | 0.5 (≈ 1.23 µM) | 1 (≈ 2.46 µM) | 2 (≈ 4.92 µM) | COC(=O)[C@@H](Cn1cncn1)NC(=O)[C@@H](C)c1cccc(C(=O)c2ccccc2)c1 | Activity [27]: 0.54%; Activity [28]: 34.69%; Activity [29]: 54.56%; Activity [30]: 64.15%; Activity [31]: 0.9%; Activity [32]: 0.26%; Activity [33]: 0.9%
9 | 1 (≈ 2.26 µM) | 0.25 (≈ 0.565 µM) | 0.5 (≈ 1.13 µM) | 0.5 (≈ 1.13 µM) | 2 (≈ 4.52 µM) | C[C@H](C(=O)NC(Cn1cncn1)C(=O)c1ccccc1)c1ccc(-c2ccccc2)c(F)c1 (some centres undefined) | –
10 | 1 (≈ 2.62 µM) | 1 (≈ 2.62 µM) | 0.25 (≈ 0.655 µM) | 0.58 (≈ 1.52 µM) | > 8 | COC(=O)[C@@H](Cn1ccnc1)NC(=O)[C@@H](C)c1ccc2cc(OC)ccc2c1 | –
11 | 0.5 (≈ 1.26 µM) | 2 (≈ 5.06 µM) | 1 (≈ 2.53 µM) | 0.5 (≈ 1.26 µM) | > 8 | COC(=O)[C@@H](Cn1ccnc1)NC(=O)[C@@H](C)c1ccc(-c2ccccc2)c(F)c1 | –
12 | 1 (≈ 2.61 µM) | 0.25 (≈ 0.654 µM) | 0.25 (≈ 0.654 µM) | 0.25 (≈ 0.654 µM) | 4 (≈ 10.5 µM) | COC(=O)[C@@H](Cn1cncn1)NC(=O)[C@@H](C)c1ccc2cc(OC)ccc2c1 | –
